Laboratory results taken from ChEMBL document CHEMBL1201862, “PubChem BioAssay data set” (2004).
Several values for one entry are separate records, joined by “and”; a condition that tells them apart may be missing. Identical values can stand only once.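 Compound exposure: 48 hours, 5 concentrations, 96-well plates. Abbreviation: GI50, concentration required for 50% inhibition of growth.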 Activity calls are given as the source filed them. Cut-off read from the data, not from the text of the source: active = GI50 up to about 1.1 µM and inactive = higher.

Experiments:
Assay in all cases: NCI anticancer screen, dose series, 48 h
[1] = test system: SF-295
[2] = test system: A498
[3] = test system: MDA-MB-435
[4] = test system: Malme-3M
[5] = test system: UACC-62
[6] = test system: KM12
[7] = test system: MOLT-4
[8] = test system: OVCAR-4
[9] = test system: NCI-H460
[10] = test system: PC-3
[11] = test system: Hs-578T
[12] = test system: SF-268
[13] = test system: RPMI-8226
[14] = test system: HT-29
[15] = test system: SK-OV-3
[16] = test system: SK-MEL-28
[17] = test system: CCRF-CEM
[18] = test system: HOP-92

Measured: GI50

O=C(/C=C/c1cccs1)c1ccc([N+](=O)[O-])cc1
inactive: [1] 90.8 µM | [2] > 100 µM | [3] > 100 µM | [4] > 100 µM | [5] > 100 µM | [6] 71.9 µM | [7] 71 µM | [8] > 100 µM | [9] > 100 µM | [10] > 100 µM | [11] 65.5 µM | [12] > 100 µM | [13] 49.4 µM | [14] > 100 µM | [15] > 100 µM | [16] > 100 µM | [17] > 100 µM

C#CCN(CC#C)C(=O)C(=O)c1c[nH]c2ccc(OC)cc12
inactive: [1] 17.5 µM | [2] 15.1 µM | [3] 18.5 µM | [4] 17.2 µM | [5] 19.5 µM | [6] 14 µM | [7] > 10 µM | [18] 14.2 µM | [8] > 10 µM | [9] 15 µM | [11] 16.1 µM | [12] 29.5 µM | [13] 10.6 µM | [14] 12.5 µM | [15] 17.8 µM | [16] 16.1 µM | [17] 19.7 µM

C1CCCN(NC2=NCCO2)CC1
inactive: [1] > 100 µM | [2] > 100 µM | [3] > 100 µM | [4] > 100 µM | [5] > 100 µM | [6] > 100 µM | [7] > 100 µM | [8] > 100 µM | [9] > 100 µM | [10] > 100 µM | [11] > 100 µM | [13] > 100 µM | [14] > 100 µM | [17] > 100 µM

CCCCc1c(O)nc(Nc2nc3ccccc3[nH]2)[nH]c1=O
inactive: [1] > 100 µM | [2] > 100 µM | [3] > 100 µM | [4] 22.1 µM | [5] > 100 µM | [6] > 100 µM | [7] > 100 µM | [8] > 100 µM | [9] > 100 µM | [10] > 100 µM | [11] 23.3 µM | [12] 98.9 µM | [13] > 100 µM | [14] > 100 µM | [15] > 100 µM | [16] > 100 µM | [17] > 100 µM

O=[PH]1c2ccccc2Nc2ccccc21
inactive: [1] > 100 µM | [2] 21.7 µM | [3] > 100 µM | [4] 80.2 µM | [5] > 100 µM | [6] > 100 µM | [7] 26.2 µM | [18] > 100 µM | [8] 64.7 µM | [9] 53.5 µM | [10] 47.1 µM | [12] > 100 µM | [14] 51.6 µM | [15] > 100 µM | [16] > 100 µM | [17] > 100 µM

Cc1cc(S(=O)(=O)N/C(=N/N)NCCc2ccccc2)c(S)cc1Cl
inactive: [3] 22 µM | [4] 22 µM | [5] 18.1 µM | [6] 23.4 µM | [7] 17.7 µM | [8] 22.9 µM | [10] 30.1 µM | [11] 25.5 µM | [12] 28.7 µM | [13] 32.7 µM | [14] 31.6 µM | [15] 23.3 µM | [16] 20.7 µM | [17] 25.1 µM

Cc1ccccc1NC(=O)Cc1csc2[n+]1C(=O)/C(=C/c1ccc([N+](=O)[O-])cc1)S2
inactive: [1] 31.8 µM | [3] 30.3 µM | [6] 23.7 µM | [7] 25.5 µM | [18] 19.5 µM | [8] 12.1 µM | [9] 22.1 µM | [10] 26.8 µM | [14] 36 µM | [15] > 100 µM | [16] 37.7 µM

O=C1CCC(=O)N1n1c(Cc2ccccc2)n[nH]c1=O
inactive: [1] > 100 µM | [2] > 100 µM | [3] > 100 µM | [4] > 100 µM | [5] > 100 µM | [6] 7.29 µM | [7] > 100 µM | [8] > 100 µM | [9] > 100 µM | [10] > 100 µM | [11] > 100 µM | [12] > 100 µM | [13] > 100 µM | [14] > 100 µM | [15] > 100 µM | [16] > 100 µM | [17] > 100 µM

Cc1ccc(-c2nc(-c3cnccn3)n(C3OC(CO)C(O)C(O)C3O)n2)cc1 (centres undefined)
inactive: [1] > 100 µM | [3] > 100 µM | [5] > 100 µM | [6] > 100 µM | [7] > 100 µM | [18] > 100 µM | [8] > 100 µM | [9] > 100 µM | [10] > 100 µM | [12] > 100 µM | [13] > 100 µM | [14] > 100 µM | [16] > 100 µM | [17] > 100 µM

O=C1CCCCCCCCCCC1CN1CCCC1 (centres undefined)
inactive: [1] 29.9 µM | [2] 19.4 µM | [3] 36.1 µM | [4] 31.6 µM | [5] 17.1 µM | [6] 25.6 µM | [7] 39.4 µM | [9] 26.9 µM | [10] 30.8 µM | [11] 17.9 µM | [12] 50 µM | [13] > 100 µM | [14] 17.9 µM | [15] 50.9 µM | [16] 22.1 µM | [17] 27.4 µM

CC(=O)OCC1OC(Sc2nc(-c3ccc(C)cc3)c(C#N)c(=O)n2C2OC(COC(C)=O)C(OC(C)=O)C(OC(C)=O)C2OC(C)=O)C(OC(C)=O)C(OC(C)=O)C1OC(C)=O (centres undefined)
inactive: [1] > 100 µM | [2] > 100 µM | [5] > 100 µM | [7] > 100 µM | [9] > 100 µM | [10] > 100 µM | [11] > 100 µM | [12] > 100 µM | [13] > 100 µM | [14] > 100 µM | [15] > 100 µM | [16] > 100 µM | [17] 4.83 µM and 6.76 µM

N#C/C(=N/Nc1[nH]cnc1C(N)=O)C(=O)Nc1ccccc1
inactive: [1] 17.5 µM | [3] 22.1 µM | [4] 5.48 µM | [5] 9.18 µM | [6] 13.9 µM | [7] 4.88 µM | [8] 14.6 µM | [9] 37.6 µM | [10] 7.89 µM | [11] 67.8 µM | [12] 8.17 µM | [13] 2.16 µM | [14] 48.6 µM | [15] 4.66 µM | [16] 88.5 µM | [17] 3.23 µM

O=C(CC(C(=O)c1ccsc1)c1ccsc1)c1ccsc1 (centres undefined)
inactive: [1] 73.6 µM | [2] > 100 µM | [3] 44.6 µM | [4] > 100 µM | [5] 74.8 µM | [6] 42.7 µM | [7] 35.6 µM | [8] 62.1 µM | [9] 60 µM | [10] 44 µM | [11] > 100 µM | [12] > 100 µM | [13] 33.5 µM | [14] 77.6 µM | [15] 59.4 µM | [16] 82.8 µM | [17] 43.1 µM
